Measured values from publication PMC4884984, “Identification of approved and investigational drugs that inhibit hypoxia-inducible factor-1 signaling” (Oncotarget, 2016).
Where two headings read alike, the source gives them in different places.

Tests used:
HIF-1α–NanoLuc = HIF-1α–NanoLuc reporter gene assay (qHTS primary and confirmatory screens); type: cell-based, human
[1] = tested on: hypoxia response element-beta-lactamase (HRE–bla); experiment: HRE-bla reporter gene assay in ME-180 cells; type: cell-based, human
[2] = tested on: HIF-1α–NanoLuc HCT116 cells; experiment: Viability (Luc): CellTiter-Glo counter screen in HIF-1α–NanoLuc cells; type: cell-based, human; conditions: for Viability (Luc) confirmatory IC50: Table S7, 1% O2, 18 h
HRE–bla ME-180 cells = experiment: Viability (BLA): CellTiter-Glo counter screen in HRE–bla cells; type: cell-based, human; conditions: for IC50 / Emax: Table S7, confirmatory screen; for IC50: 1% O2, 18 h; for Emax: read-out: Viability (BLA) confirmatory Efficacy
HCT116 cells = experiment: Cancer cell proliferation assay, HCT116; type: cell-based, human; conditions: for Emax / IC50: Homo sapiens; for Emax: read-out: HCT116 3-Day Viability Efficacy
ME-180 cells = experiment: Cancer cell proliferation assay, ME-180; type: cell-based; conditions: Homo sapiens; for Emax: read-out: ME-180 3-Day Viability Efficacy
[3] = tested on: co-cultures of human aortic endothelial cells and human mesenchymal stem cells; experiment: In vitro angiogenesis co-culture assay (tube formation); type: cell-based; conditions: Homo sapiens, 72 h, Table 1, three-day exposure
[4] = Homo sapiens, Table S2, primary screen, read-out: Pathway inhibitors (primary screen) HIF-1α–NanoLuc Activity Efficacy
[5] = Homo sapiens, Table S2, primary screen, read-out: Pathway inhibitors (primary screen) HIF-1α–NanoLuc Activity IC50
[6] = Homo sapiens, Table S2, validation, read-out: Pathway inhibitors (validation) HIF-1α–NanoLuc Activity Efficacy
[7] = Homo sapiens, Table S2, validation, read-out: Pathway inhibitors (validation) HIF-1α–NanoLuc Activity IC50
[8] = Homo sapiens, Table S7, confirmatory screen, read-out: HIF-1α–NanoLuc confirmatory Efficacy
[9] = Homo sapiens, Table S7, primary screen, read-out: HIF-1α–NanoLuc primary Efficacy
[10] = Homo sapiens, ME-180, Table S7, confirmatory screen, read-out: HRE–bla confirmatory Efficacy
[11] = Homo sapiens, ME-180, Table S7, confirmatory screen, read-out: HRE–bla confirmatory IC50
[12] = HCT-116, 72 h, Table S8, 3 days
[13] = HCT-116, 72 h, Table S8, 3 days, read-out: HCT116 3-Day Viability IC50
[14] = ME-180, 72 h, Table S8, 3 days, read-out: ME-180 3-Day Viability IC50
[15] = Homo sapiens, ME-180, Table 1, percentage of inhibition compared to DMSO controls, read-out: HRE-bla Efficacy (converted)
[16] = Homo sapiens, Table 1, ME-180 cells, 1% O2, 18 h, read-out: HRE-bla IC50
[17] = HCT-116, Table 1, 72 h, read-out: 72-hr Viability HCT116 IC50
[18] = ME-180, Table 1, 72 h, read-out: 72-hr Viability ME-180 IC50

IC50 [1, 11] [µM] | IC50 (HCT116 cells; [13]) [µM] | SMILES | Emax (HIF-1α–NanoLuc; [6]) [%] | Emax (HIF-1α–NanoLuc; [8]) [%] | Emax [1, 10] [%] | Viability (Luc) confirmatory IC50 [2] | IC50 (HRE–bla ME-180 cells; Homo sapiens, ME-180) [µM] | Emax (HCT116 cells; [12]) [%] | Emax (ME-180 cells; ME-180, 72 h, Table S8, 3 days) [%] | IC50 (ME-180 cells; [14]) [µM] | Emax (HRE–bla ME-180 cells; Homo sapiens, ME-180) [%] | also measured
15.9 ± 6.91 |  | CO[C@H]1C[C@@H]2CC[C@@H](C)[C@@](O)(O2)C(=O)C(=O)N2CCCC[C@H]2C(=O)O[C@H]([C@H](C)C[C@@H]2CC[C@@H](OC(=O)C(C)(CO)CO)[C@H](OC)C2)CC(=O)[C@H](C)/C=C(\C)[C@@H](O)[C@@H](OC)C(=O)[C@H](C)C[C@H](C)/C=C/C=C/C=C/1C [Temsirolimus] |  | 92 ± 8 | 86 ± 7 | Inactive | 27.7 ± 1.87 |  |  |  | 116 ± 11 | IC50 (HIF-1α–NanoLuc; Homo sapiens, Table S7, confirmatory screen, read-out: HIF-1α–NanoLuc confirmatory IC50): 34.5 ± 2.34 µM
4.1 ± 0.7 | 31.8 ± 9.41 | CCCS(=O)(=O)Nc1ccc(F)c(C(=O)c2c[nH]c3ncc(-c4ccc(Cl)cc4)cc23)c1F [Vemurafenib] | 66 ± 6 | 66 ± 6 | 75 ± 11 | Inactive | 16 ± 8.13 | 63 ± 4 | 92 ± 5 | 14.3 ± 1.97 | 27 ± 10 | IC50 (HIF-1α–NanoLuc; [7]): 13.6 ± 6.38 µM

The remaining lines, values behind:

SMILES | IC50 [1, 11] [µM] | IC50 (HCT116 cells; [13]) [µM] | Emax (HIF-1α–NanoLuc; [6]) [%] | Emax (HIF-1α–NanoLuc; [8]) [%] | Emax [1, 10] [%] | Viability (Luc) confirmatory IC50 [2] | IC50 (HRE–bla ME-180 cells; Homo sapiens, ME-180) [µM] | Emax (HCT116 cells; [12]) [%] | Emax (ME-180 cells; ME-180, 72 h, Table S8, 3 days) [%] | IC50 (ME-180 cells; [14]) [µM] | Emax (HRE–bla ME-180 cells; Homo sapiens, ME-180) [%] | also measured
O=C(NOCC1CC1)c1ccc(F)c(F)c1Nc1ccc(I)cc1Cl [PD 184352] | 5.98 ± 0.69 | 13.2 | 99 ± 2 | 99 ± 2 | 74 ± 5 | Inactive | 5.93 ± 4.08 | 97 ± 4 | 100 ± 7 | 18 ± 1.17 |  | Emax (HIF-1α–NanoLuc; [4]): 64%; IC50 (HIF-1α–NanoLuc; [5]): 0.84 µM; IC50 (HIF-1α–NanoLuc; [7]): 13.7 ± 0.93 µM; Emax (HIF-1α–NanoLuc; [9]): 64%
C[C@@H]1O[C@@H](O[C@@H]2C=C3CC[C@@H]4[C@H](CC[C@]5(C)[C@@H](c6ccc(=O)oc6)CC[C@]45O)[C@@]3(C)CC2)[C@H](O)[C@H](O)[C@H]1O [Proscillaridin A] | 0.01 | 0.09 ± 0.03 |  |  | 93 ± 3 | Inactive | 0.02 | 87 ± 20 | 98 ± 2 | 0.02 |  | IC50 (HIF-1α–NanoLuc; Homo sapiens, 18 h, read-out: IC50 (primary screen, HIF-1α–NanoLuc assay)): 0.01 µM; Emax (HIF-1α–NanoLuc; Homo sapiens, read-out: Efficacy (primary screen, HIF-1α–NanoLuc assay)): 101%; Emax (HIF-1α–NanoLuc; Homo sapiens, read-out: HIF-1α–NanoLuc confirmatory Efficacy): 103 ± 3%; IC50 (HIF-1α–NanoLuc; Homo sapiens, read-out: HIF-1α–NanoLuc confirmatory IC50): 0.01 µM; Emax (HIF-1α–NanoLuc; Homo sapiens, read-out: HIF-1α–NanoLuc primary Efficacy): 101%; IC50 (HIF-1α–NanoLuc; Homo sapiens, read-out: HIF-1α–NanoLuc primary IC50): 0.01 µM
CCN(CC)CCNC(=O)c1c(C)[nH]c(/C=C2\C(=O)Nc3ccc(F)cc32)c1C [Sunitinib] |  |  | 80 ± 15 | 80 ± 15 | 81 ± 32 |  | 16 ± 8.13 |  |  |  | 60 ± 38 | IC50 (HIF-1α–NanoLuc; Homo sapiens, HCT-116, Table 1, HCT116 reporter cells, hypoxia 1% O2, 18 h, confirmatory, read-out: HIF-1α-NanoLuc IC50): 11.3 ± 3.71 µM; Emax (HIF-1α–NanoLuc; Homo sapiens, Table 1, percentage of inhibition compared to DMSO controls, read-out: HIF-1α-NanoLuc Efficacy (converted)): 80%; Emax (HIF-1α–NanoLuc; [4]): 60%; IC50 (HIF-1α–NanoLuc; [5]): 1.68 µM; Emax (HIF-1α–NanoLuc; [9]): 60%; Emax [1, 15]: 81%; IC50 [1, 16]: 17 ± 3.17 µM; IC50 ([2]; Homo sapiens, HCT-116, Table S7, confirmatory screen, 1% O2, 18 h): 26.4 ± 9.41 µM; Emax ([2]; Homo sapiens, HCT-116, Table S7, confirmatory screen, read-out: Viability (Luc) confirmatory Efficacy): 26 ± 7%; IC50 (HCT116 cells; [17]): 37.2 µM; HCT116 3-Day Viability IC50 (HCT116 cells; Table S8, 3 days): Inactive; IC50 (ME-180 cells; [18]): 19 ± 4.34 µM
CC[C@@]1(O)C(=O)OCc2c1cc1n(c2=O)Cc2cc3c(CN(C)C)c(O)ccc3nc2-1 [Topotecan] |  |  |  |  | 131 ± 9 |  |  |  |  |  |  | Emax [1, 15]: 131%; IC50 [1, 16]: 0.62 ± 0.38 µM; Viability (BLA) confirmatory IC50 (HRE–bla ME-180 cells; Table S7, 1% O2, 18 h): Inactive; IC50 (HCT116 cells; [17]): 4.3 ± 1.2 µM; IC50 (ME-180 cells; [18]): 0.1 ± 0.01 µM; IC50 ([3]; tube formation): 0.01 µM; Emax ([3]; percentage of inhibition compared to DMSO controls, read-out: Angiogenesis Efficacy (converted)): 80%
CC(/C=C/C(=O)NO)=C\[C@@H](C)C(=O)c1ccc(N(C)C)cc1 [Trichostatin A] |  |  |  |  |  | Inactive |  |  |  |  |  | Pathway inhibitors (validation) HIF-1α–NanoLuc Activity Efficacy (HIF-1α–NanoLuc; Table S2, validation): 55 ± 4%; IC50 (HIF-1α–NanoLuc; Table S2, validation, read-out: Pathway inhibitors (validation) HIF-1α–NanoLuc Activity IC50): 0.67 ± 0.26 µM; HIF-1α–NanoLuc confirmatory Efficacy (HIF-1α–NanoLuc; Table S7, confirmatory screen): 55 ± 4%; HRE–bla confirmatory Efficacy ([1]; Table S7, confirmatory screen): 92 ± 11%; IC50 ([1]; Table S7, confirmatory screen, read-out: HRE–bla confirmatory IC50): 12.2 ± 3.9 µM; IC50 (HRE–bla ME-180 cells): 9.68 ± 3.79 µM; Emax (HRE–bla ME-180 cells): 43 ± 13%
COC[C@H]1OC(=O)c2coc3c2[C@@]1(C)C1=C(C3=O)[C@@H]2CCC(=O)[C@@]2(C)C[C@H]1OC(C)=O [Wortmannin] | 0.57 ± 0.17 |  |  |  | 91 ± 8 |  | 11.4 ± 4.79 |  | 80 ± 3 | 7 ± 4.33 | 47 ± 11 | HCT116 3-Day Viability IC50 (HCT116 cells; Table S8, 3 days): Inactive
